Reference: PubChem BioAssay AID2060615 (Molecular Pharmacology Branch, DTP, NCI, 2025)

System: 496974-208-R-J2-PDC complex spheroids, growth % test/control
Experiment: Anticancer human tumor 496974-208-R-J2-PDC patient-derived pancreatic carcinoma cell line growth inhibition [CLK]
Conditions: for IC50: curve of first compound; for viability, T/C: stronger effect = lower value
Procedure, shortened: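 Patient-derived tumor cells grown as complex spheroids with HUVEC endothelial cells and mesenchymal stem cells, treated with drug combinations. Concentrations descend in half-log steps from near clinical Cmax, or from 10 microM if Cmax unknown.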

[1] = second compound 0.0316 µM, first compound 0.0316 µM
[2] = second compound 0.0316 µM, first compound 0.1 µM
[3] = second compound 0.0316 µM, first compound 0.316 µM
[4] = second compound 0.0316 µM, first compound 1 µM
[5] = second compound 0.0316 µM, first compound 3.16 µM
[6] = second compound 0.0316 µM, first compound 10 µM
[7] = second compound 0.1 µM, first compound 0.0316 µM
[8] = second compound 0.1 µM, first compound 0.1 µM
[9] = second compound 0.1 µM, first compound 0.316 µM
[10] = second compound 0.1 µM, first compound 1 µM
[11] = second compound 0.1 µM, first compound 3.16 µM
[12] = second compound 0.1 µM, first compound 10 µM
[13] = second compound 0.316 µM, first compound 0.0316 µM
[14] = second compound 0.316 µM, first compound 0.1 µM
[15] = second compound 0.316 µM, first compound 0.316 µM
[16] = second compound 0.316 µM, first compound 1 µM
[17] = second compound 0.316 µM, first compound 3.16 µM
[18] = second compound 0.316 µM, first compound 10 µM
[19] = second compound 1 µM, first compound 0.0316 µM
[20] = second compound 1 µM, first compound 0.1 µM
[21] = second compound 1 µM, first compound 0.316 µM
[22] = second compound 1 µM, first compound 1 µM
[23] = second compound 1 µM, first compound 3.16 µM
[24] = second compound 1 µM, first compound 10 µM
[25] = second compound 3.16 µM, first compound 0.0316 µM
[26] = second compound 3.16 µM, first compound 0.1 µM
[27] = second compound 3.16 µM, first compound 0.316 µM
[28] = second compound 3.16 µM, first compound 1 µM
[29] = second compound 3.16 µM, first compound 3.16 µM
[30] = second compound 3.16 µM, first compound 10 µM
[31] = second compound 10 µM, first compound 0.0316 µM
[32] = second compound 10 µM, first compound 0.1 µM
[33] = second compound 10 µM, first compound 0.316 µM
[34] = second compound 10 µM, first compound 1 µM
[35] = second compound 10 µM, first compound 3.16 µM
[36] = second compound 10 µM, first compound 10 µM
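Also: spheroids exposed to the drugs for 7 days before readout.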
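For viability, T/C in this document: 100% = DMSO vehicle control wells.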

What does the source list for `CC1(C)CCC(CN2CCN(c3ccc(C(=O)NS(=O)(=O)c4ccc(NCC5CCOCC5)c([N+](=O)[O-])c4)c(Oc4cnc5[nH]ccc5c4)c3)CC2)=C(c2ccc(Cl)cc2)C1` + CN1CCN(c2cc(C(=O)Nc3cc4cc(-c5cnn(C)c5)ccc4cn3)ccn2)CC1?
IC50 (second compound 0.0316 µM): > 10000 nM; IC50 (second compound 0.1 µM): 8060 nM; IC50 (second compound 0.316 µM): < 31.6 nM; IC50 (second compound 1 µM): < 31.6 nM; IC50 (second compound 3.16 µM): < 31.6 nM; IC50 (second compound 10 µM): < 31.6 nM; viability, T/C [1]: 93.7%; viability, T/C [2]: 95.9%; viability, T/C [3]: 101%; viability, T/C [4]: 104%; viability, T/C [5]: 92.1%; viability, T/C [6]: 50.8%; viability, T/C [7]: 80.3%; viability, T/C [8]: 77.9%; viability, T/C [9]: 86.7%; viability, T/C [10]: 87.7%; viability, T/C [11]: 84.9%; viability, T/C [12]: 42.3%; viability, T/C [13]: 5.92%; viability, T/C [14]: 5.59%; viability, T/C [15]: 5.97%; viability, T/C [16]: 6.42%; viability, T/C [17]: 3.9%; viability, T/C [18]: 5.66%; viability, T/C [19]: 0.75%; viability, T/C [20]: 0.68%; viability, T/C [21]: 0.5%; viability, T/C [22]: 0.5%; viability, T/C [23]: 0.63%; viability, T/C [24]: 2.1%; viability, T/C [25]: 0.5%; viability, T/C [26]: 0.74%; viability, T/C [27]: 0.43%; viability, T/C [28]: 0.7%; viability, T/C [29]: 0.52%; viability, T/C [30]: 3.57%; viability, T/C [31]: 0.25%; viability, T/C [32]: 1.16%; viability, T/C [33]: 0.37%; viability, T/C [34]: 0.34%; viability, T/C [35]: 0.32%; viability, T/C [36]: 2.82%

How did the IC50 (second compound 0.0316 µM) turn out when `CC1COCCN1c1cc(C2(S(C)(=N)=O)CC2)nc(-c2ccnc3[nH]ccc23)n1` (stereo unspecified) + CN1CCN(c2cc(C(=O)Nc3cc4cc(-c5cnn(C)c5)ccc4cn3)ccn2)CC1 was run?
Its IC50 is 3820 nM.

What about the IC50 (second compound 0.1 µM) of the same molecule?
The IC50 was 1930 nM.

And the IC50 (second compound 0.316 µM)?
The IC50 was under 31.6 nM.

What about the IC50 (second compound 1 µM) of the same molecule?
Its IC50 is under 31.6 nM.

What about the IC50 (second compound 3.16 µM) of the same molecule?
Its IC50 is under 31.6 nM.

And the IC50 (second compound 10 µM)?
Its IC50 is under 31.6 nM.

What about the viability, T/C [1] of the same molecule?
The viability, T/C was 107%.

What about the viability, T/C [2] of the same molecule?
Its viability, T/C is 99.8%.

What about the viability, T/C [3] of the same molecule?
Its viability, T/C is 102%.

What about the viability, T/C [4] of the same molecule?
Its viability, T/C is 82.8%.

And the viability, T/C [5]?
The viability, T/C was 53.3%.

What about the viability, T/C [6] of the same molecule?
The viability, T/C was 34.5%.

And the viability, T/C [7]?
Its viability, T/C is 94.5%.

What about the viability, T/C [8] of the same molecule?
The viability, T/C was 83.4%.

And the viability, T/C [9]?
The viability, T/C was 73.3%.

And the viability, T/C [10]?
The viability, T/C was 70.1%.

And the viability, T/C [11]?
Its viability, T/C is 35.6%.

What about the viability, T/C [12] of the same molecule?
The viability, T/C was 22.4%.

And the viability, T/C [13]?
The viability, T/C was 7.43%.

What about the viability, T/C [14] of the same molecule?
The viability, T/C was 5.54%.

What about the viability, T/C [15] of the same molecule?
Its viability, T/C is 5.89%.

What about the viability, T/C [16] of the same molecule?
The viability, T/C was 5.38%.

What about the viability, T/C [17] of the same molecule?
The viability, T/C was 4.22%.

And the viability, T/C [18]?
The viability, T/C was 5.13%.

What about the viability, T/C [19] of the same molecule?
The viability, T/C was 0.53%.

And the viability, T/C [20]?
The viability, T/C was 0.67%.

And the viability, T/C [21]?
Its viability, T/C is 2.64%.

What about the viability, T/C [22] of the same molecule?
Its viability, T/C is 0.45%.

And the viability, T/C [23]?
The viability, T/C was 0.65%.

And the viability, T/C [24]?
The viability, T/C was 1.19%.

What about the viability, T/C [25] of the same molecule?
The viability, T/C was 0.65%.

What about the viability, T/C [26] of the same molecule?
Its viability, T/C is 0.51%.

What about the viability, T/C [27] of the same molecule?
The viability, T/C was 1.73%.

And the viability, T/C [28]?
Its viability, T/C is 0.46%.

And the viability, T/C [29]?
The viability, T/C was 0.61%.

What about the viability, T/C [30] of the same molecule?
The viability, T/C was 0.43%.

What about the viability, T/C [31] of the same molecule?
Its viability, T/C is 0.36%.

What about the viability, T/C [32] of the same molecule?
The viability, T/C was 0.42%.

What about the viability, T/C [33] of the same molecule?
The viability, T/C was 1.59%.

What about the viability, T/C [34] of the same molecule?
Its viability, T/C is 0.41%.

What about the viability, T/C [35] of the same molecule?
Its viability, T/C is 1.27%.

What about the viability, T/C [36] of the same molecule?
The viability, T/C was 1.47%.

What does the source list for `NC(=O)C(=Cn1cnc(-c2cc(C(F)(F)F)cc(C(F)(F)F)c2)n1)c1cncnc1` + CN1CCN(c2cc(C(=O)Nc3cc4cc(-c5cnn(C)c5)ccc4cn3)ccn2)CC1?
IC50 (second compound 0.0316 µM): 80.4 nM; IC50 (second compound 0.1 µM): 42 nM; IC50 (second compound 0.316 µM): < 9.49 nM; IC50 (second compound 1 µM): < 9.49 nM; IC50 (second compound 3.16 µM): < 9.49 nM; IC50 (second compound 10 µM): < 9.49 nM; viability, T/C (second compound 0.0316 µM, first compound 0.00949 µM): 90.6%; viability, T/C (second compound 0.0316 µM, first compound 0.03 µM): 67.2%; viability, T/C (second compound 0.0316 µM, first compound 0.0949 µM): 52.1%; viability, T/C (second compound 0.0316 µM, first compound 0.3 µM): 21.3%; viability, T/C (second compound 0.0316 µM, first compound 0.949 µM): 16.9%; viability, T/C (second compound 0.0316 µM, first compound 3 µM): 11.8%; viability, T/C (second compound 0.1 µM, first compound 0.00949 µM): 61.6%; viability, T/C (second compound 0.1 µM, first compound 0.03 µM): 56.5%; viability, T/C (second compound 0.1 µM, first compound 0.0949 µM): 35.2%; viability, T/C (second compound 0.1 µM, first compound 0.3 µM): 12.4%; viability, T/C (second compound 0.1 µM, first compound 0.949 µM): 7.44%; viability, T/C (second compound 0.1 µM, first compound 3 µM): 2.92%; viability, T/C (second compound 0.316 µM, first compound 0.00949 µM): 2.46%; viability, T/C (second compound 0.316 µM, first compound 0.03 µM): 1.91%; viability, T/C (second compound 0.316 µM, first compound 0.0949 µM): 3.26%; viability, T/C (second compound 0.316 µM, first compound 0.3 µM): 0.41%; viability, T/C (second compound 0.316 µM, first compound 0.949 µM): 0.31%; viability, T/C (second compound 0.316 µM, first compound 3 µM): 0.19%; viability, T/C (second compound 1 µM, first compound 0.00949 µM): 0.39%; viability, T/C (second compound 1 µM, first compound 0.03 µM): 0.4%; viability, T/C (second compound 1 µM, first compound 0.0949 µM): 0.64%; viability, T/C (second compound 1 µM, first compound 0.3 µM): 0.44%; viability, T/C (second compound 1 µM, first compound 0.949 µM): 2.17%; viability, T/C (second compound 1 µM, first compound 3 µM): 0.11%; viability, T/C (second compound 3.16 µM, first compound 0.00949 µM): 0.34%; viability, T/C (second compound 3.16 µM, first compound 0.03 µM): 0.4%; viability, T/C (second compound 3.16 µM, first compound 0.0949 µM): 0.41%; viability, T/C (second compound 3.16 µM, first compound 0.3 µM): 0.37%; viability, T/C (second compound 3.16 µM, first compound 0.949 µM): 0.26%; viability, T/C (second compound 3.16 µM, first compound 3 µM): 0.13%; viability, T/C (second compound 10 µM, first compound 0.00949 µM): 0.25%; viability, T/C (second compound 10 µM, first compound 0.03 µM): 0.23%; viability, T/C (second compound 10 µM, first compound 0.0949 µM): 1.86%; viability, T/C (second compound 10 µM, first compound 0.3 µM): 0.31%; viability, T/C (second compound 10 µM, first compound 0.949 µM): 0.24%; viability, T/C (second compound 10 µM, first compound 3 µM): 0.69%
